The results in this text go back to patent US11040976B2, “Substrate selective inhibitors of insulin-degrading enzyme (IDE) and uses thereof” (President and Fellows of Harvard College, priority 2015, dated 2021).

What is called IC50 is the midpoint of a concentration-inhibition curve.

For this assay, the target named is T1, recombinant human IDE42-1019 (Homo sapiens, UniProt P14735).
T1 construct: recombinant human IDE42-1019 (R&D Systems); purchased R&D Systems
T1 sequence (P14735 42-1019): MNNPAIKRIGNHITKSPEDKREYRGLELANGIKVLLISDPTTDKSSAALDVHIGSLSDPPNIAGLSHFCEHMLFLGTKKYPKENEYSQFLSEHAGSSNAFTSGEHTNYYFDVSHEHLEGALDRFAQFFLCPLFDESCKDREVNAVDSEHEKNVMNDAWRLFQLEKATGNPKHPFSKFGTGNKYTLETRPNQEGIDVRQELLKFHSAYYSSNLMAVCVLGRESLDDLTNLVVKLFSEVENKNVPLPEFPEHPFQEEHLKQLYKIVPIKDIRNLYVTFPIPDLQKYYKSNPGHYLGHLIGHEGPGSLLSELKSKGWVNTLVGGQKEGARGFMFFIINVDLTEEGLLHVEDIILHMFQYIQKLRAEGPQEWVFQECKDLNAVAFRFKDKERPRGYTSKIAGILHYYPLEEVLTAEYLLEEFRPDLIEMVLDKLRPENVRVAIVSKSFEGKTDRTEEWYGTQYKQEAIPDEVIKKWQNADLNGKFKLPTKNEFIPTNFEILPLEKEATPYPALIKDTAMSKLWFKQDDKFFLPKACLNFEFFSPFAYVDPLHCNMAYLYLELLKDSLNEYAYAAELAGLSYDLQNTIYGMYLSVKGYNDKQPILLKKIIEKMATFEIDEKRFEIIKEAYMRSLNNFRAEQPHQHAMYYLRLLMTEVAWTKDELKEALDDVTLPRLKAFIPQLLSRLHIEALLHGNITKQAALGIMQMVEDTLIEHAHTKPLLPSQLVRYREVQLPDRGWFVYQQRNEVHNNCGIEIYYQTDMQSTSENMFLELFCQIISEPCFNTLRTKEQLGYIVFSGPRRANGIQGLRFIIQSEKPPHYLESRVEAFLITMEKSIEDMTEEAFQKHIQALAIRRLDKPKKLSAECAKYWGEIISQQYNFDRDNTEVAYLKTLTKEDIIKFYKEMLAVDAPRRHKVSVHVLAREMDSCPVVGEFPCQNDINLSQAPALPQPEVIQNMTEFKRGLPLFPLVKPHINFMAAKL
The assay is described as follows: Protease assay with fluorogenic peptide substrate Mca-[…](Dnp)-OH. In kind it is biochemical. The following applies: fluorogenic peptide Mca-RPPGFSAFK(Dnp)-OH; for IC50: apparent IC50 for compounds with submaximal inhibition, read-out: IC50 (μM) Proteolysis; for Emax: read-out: Imax (%) Proteolysis (inhibition maximum). The procedure: The proteases IDE42-1019, recombinant human IDE42-1019 (R&D Systems), neprilysin (R&D), and angiotensin-converting enzyme (R&D) were assayed using the fluorophore/quencher-tagged peptide substrate Mca-[…](Dnp)-OH (SEQ ID NO: 24) (R&D) according to the manufacturer's instructions and using the recommended buffers (fluorophore Mca=(7-methoxycourmarin-4-yl)acetyl and quencher Dnp=2,4-dinitrophenyl). For IDE the recommended buffer is 50 mM Tris pH 7.5, 1 M NaCl. The enzyme mixtures (48 μL) were transferred to a 96-well plate and combined with 2 μL of inhibitor in DMSO solutions, in 3-fold dilution series. The mixtures were allowed to equilibrate for 10 minutes and the enzymatic reaction was started by addition of substrate peptide in assay buffer (50 μL), mixed, and monitored on a fluorescence plate reader (excitation at 320 nm, emission at 405 nm). Similarly, thimet oligopeptidase (R&D) and neurolysin (R&D) were assayed using substrate Mca-PLGPK(Dnp)-OH (SEQ ID NO: 25) (R&D) according to the manufacturer's instructions and using the recommended buffers. Matrix metalloproteinase-1 (R&D) was activated and assayed according to the manufacturer's instructions with substrate Mca-KPLGL-Dpa-AR-NH2 (SEQ ID NO: 20) (R&D) (quencher DPA=N-3-(2,4,dinitrophenyl)-L-2,3-diaminopropionyl). All assay data points were obtained in duplicate.

Setting [1] is: plateau at high inhibitor concentration.

Counter-ions that a name gives are not always drawn. A value given as a limit tells only on which side of the number the result lay.

For `Cc1cccc(-c2ccc(C3CCN(S(=O)(=O)c4ccc5c(c4)Cc4ccccc4-5)CC3)cc2)c1C` [A08], the IC50 was 25 µM.
Still for that read-out and setting: the figure for `COC[C@@H]1[C@@H](c2ccc(-c3ccc(F)c(C)c3C)cc2)[C@@H]2CN(S(=O)(=O)c3ccccc3C(F)(F)F)CCCCN12` [JP-41-OMe] is 0.09 µM; for `Cc1ccccc1S(=O)(=O)NCCc1ccc(-c2cccc(C)c2C)cc1` [J3] it is 2.5 µM.
Same read-out and setting: the figure for `Cc1cccc(-c2ccc(C3CCN(S(=O)(=O)c4ccc5c(c4)OCO5)CC3)cc2)c1C` [A02] is 12 µM; for `Cc1cc(O)ccc1-c1ccc([C@@H]2[C@@H](CO)N3CCCCN(S(=O)(=O)c4ccccc4C)C[C@@H]23)cc1` [JP-31] it is 3 µM.
Turning to `Cc1cccc(-c2ccc([C@@H]3[C@H](CO)N4CCCCN(S(=O)(=O)c5ccccc5F)C[C@@H]34)cc2)c1` [Compound 807], the Emax under setting [1] turned out to be 30%.
As to `Cc1cccc(-c2ccc(C3CCN(Cc4ccccc4Oc4ccccc4)CC3)cc2)c1C` [A33], the IC50 turned out to be 7 µM.
Still for that read-out and setting: as for `Cc1cccc(-c2ccc(C3CCN(C(=O)c4ccccc4Oc4ccccc4)CC3)cc2)c1C` [A23], the figure is 10 µM.
The same measure, in the same setting: the figure for `Cc1cccc(-c2ccc(C3CCN(S(=O)(=O)c4ccc5c(c4)OCCO5)CC3)cc2)c1C` [A01] is above 30 µM; for `CCCn1nccc1S(=O)(=O)N1C/C=C\CN2C(C1)[C@H](c1ccc(-c3cccc(C)c3C)cc1)[C@H]2CO` (stereo partly shown) [JP-S16] it is 0.03 µM.
On the same count and under the same terms, the figure for `COC(=O)c1ccc(S(=O)(=O)N2CCCCN3C(C2)[C@H](c2ccc(-c4cccc(C)c4C)cc2)[C@H]3CO)n1C` (stereo partly shown) [JP-S27] is above 5 µM; for `Cc1ccccc1S(=O)(=O)N1CCN(c2ccc(-c3cccc(C)c3C)cc2)CC1` [J1] it is 1 µM.
As to `COC[C@@H]1[C@@H](c2ccc(-c3ccc(F)c(C)c3C)cc2)[C@@H]2CN(S(=O)(=O)c3nccn3C)CCCCN12` [JP-43-OMe], the IC50 was determined as 0.15 µM.
`Cc1ccccc1-c1ccc([C@@H]2[C@@H](CO)N3CCCCN(S(=O)(=O)c4ccccc4C)C[C@@H]23)cc1` [B11]: the Emax under setting [1] is 65%.
For `Cc1cccc(-c2ccc([C@@H]3[C@@H](CO)N4CCCCN(S(=O)(=O)c5ccnn5C)C[C@@H]34)cc2)c1C` [JP-S24], the IC50 came out at 0.01 µM.
The same measure, in the same setting: the figure for `Cc1cccc(-c2ccc(C3CCN(Cc4ccc5ccccc5n4)CC3)cc2)c1C` [A39] is 12 µM.
Regarding `COc1cccc(-c2ccc([C@H]3C4CN(S(=O)(=O)c5ccccc5C)CCCCN4[C@@H]3CO)cc2)c1` (stereo partly shown) [K3], under setting [1], the Emax worked out at 65%.
Consider `Cc1ccccc1S(=O)(=O)N1CCCCN2[C@H](CO)[C@@H](c3ccc(-c4cccc(F)c4F)cc3)[C@@H]2C1` [K15], for which the IC50 was determined as 0.8 µM.
On the same count and under the same terms, as for `CNC[C@@H]1[C@@H](c2ccc(-c3cccc(C)c3C)cc2)[C@@H]2CN(S(=O)(=O)c3ccccc3C(F)(F)F)CCCCN12` [JP-17-NHMe], the figure is 0.007 µM.
Regarding `Cc1ccc(-c2ccc([C@@H]3[C@@H](CO)N4CCCCN(S(=O)(=O)c5ccccc5C)C[C@@H]34)cc2)cc1C` [B3], the IC50 worked out at 0.2 µM. In addition, the Emax under setting [1] turned out to be 72%.
In the case of `COc1cc(N)ccc1S(=O)(=O)N1CCCCN2[C@H](CO)[C@@H](c3ccc(-c4cccc(C)c4C)cc3)[C@@H]2C1` [JP-S5], the IC50 is 0.5 µM.
Still for that read-out and setting: as for `O=C(NC1CCCC1)N1CCCCN2[C@@H](CO)[C@H](c3ccc(/C=C/c4ccccc4)cc3)[C@@H]2C1` [compound 900], the figure is above 7.5 µM; as for `Cc1cc2c(cc1S(=O)(=O)N1CCC(c3ccc(-c4cccc(C)c4C)cc3)CC1)OCC(=O)N2` [A13], 10 µM.
`Cc1ccc(C)c(-c2ccc([C@@H]3[C@@H](CO)N4CCCCN(S(=O)(=O)c5ccccc5C)C[C@@H]34)cc2)c1` [B12]: the Emax under setting [1] was 65%.
As for `O=S(=O)(c1ccccc1C(F)(F)F)N1C/C=C\CN2C(C1)[C@H](c1ccc(-c3cccc(Cl)c3Cl)cc1)[C@H]2CO` (stereo partly shown) [K21], the IC50 was 0.008 µM.
Take `O=C(c1ccncc1)N1CC2NC(C1)C2c1ccc(/C=C/c2ccccc2)cc1` (stereo not shown) [C10]: the IC50 was 10 µM. For the same molecule, the Emax under setting [1] is 100%.
Consider `Cc1cccc(-c2ccc(C3CCN(S(=O)(=O)CCc4ccncc4)CC3)cc2)c1C` [A17], for which the IC50 stood at 5 µM.
On the same count and under the same terms, the figure for `Cc1cccc(-c2ccc(C3CCN(S(=O)(=O)c4ccccc4Oc4ccccc4)CC3)cc2)c1C` [A04] is 12 µM.
Still for that read-out and setting: as for `Cc1ccccc1S(=O)(=O)N1CCCCN2[C@H](CO)[C@@H](c3ccc(-c4cccc(F)c4C)cc3)[C@@H]2C1` [K20], the figure is 0.1 µM.
For `COC[C@H]1[C@H](c2ccc(C#Cc3ccccc3F)cc2)[C@@H]2CN(C(=O)NC(C)C)CCCCN12` [compound 304], the IC50 amounted to 2 µM. Under setting [1], the Emax was determined as 80%.
Take `Cc1cccc(-c2ccc([C@@H]3[C@@H](CO)N4CCCCN(S(=O)(=O)N5CCN(C)CC5)C[C@@H]34)cc2)c1C` [JP-S22]: the IC50 worked out at 0.03 µM.
The same measure, in the same setting: the figure for `Cc1cccc(-c2ccc(C3CCN(S(=O)(=O)c4ccc5c(ccn5C)c4)CC3)cc2)c1C` [A14] is 10 µM; for `Cc1cccc(-c2ccc(C3CCN(Cc4ccc(F)c5ccccc45)CC3)cc2)c1C` [A35] it is 12 µM.
For `Cc1cccc(-c2ccc([C@H]3C4CN(S(=O)(=O)c5cn(C)nc5C(F)(F)F)C/C=C\CN4[C@@H]3CO)cc2)c1C` (stereo partly shown) [JP-S20], the half-maximal inhibitory concentration (IC50) came out at 0.03 µM.
The same measure, in the same setting: the figure for `Cc1ccc(C)c(-c2ccc([C@@H]3[C@@H](CO)N4CCCCN(S(=O)(=O)c5ccccc5C)C[C@@H]34)cc2)c1` [K13] is 0.09 µM; for `Cc1cccc(-c2ccc(C3CCN(C(=O)Oc4ccc5ccccc5c4)CC3)cc2)c1C` [A30] it is 12 µM.
In the case of `COc1ccccc1-c1ccc([C@H]2[C@@H](CO)N[C@@H]2CNC(=O)C2CCCC2)cc1` [D5], the IC50 stood at 7.5 µM. The Emax under setting [1] is 60%.
On to `Cc1cc(C)cc(-c2ccc([C@@H]3[C@@H](CO)N4CCCCN(S(=O)(=O)c5ccccc5C)C[C@@H]34)cc2)c1` [K10], for which the IC50 was found to be 0.1 µM.
Still for that read-out and setting: as for `Cc1cccc(-c2ccc([C@@H]3[C@@H](CF)N4CCCCN(S(=O)(=O)c5ccccc5C(F)(F)F)C[C@@H]34)cc2)c1C` [JP-18 TFA salt], the figure is 0.01 µM.
Regarding `Cc1cccc(-c2ccc(C3CCN(C(=O)c4ccc5ccccc5n4)CC3)cc2)c1C` [A28], the IC50 was 1 µM.
For `Cc1ccc(C)c(-c2ccc([C@H]3C4CN(S(=O)(=O)c5ccccc5C)CCCCN4[C@@H]3CO)cc2)c1` (stereo partly shown) [K13], the Emax under setting [1] amounted to 65%.
Same read-out and setting: the figure for `Cc1ccccc1S(=O)(=O)N1CCCCN2C(C1)[C@H](c1ccc(-c3cccc(C)c3C)cc1)[C@H]2CO` (stereo partly shown) [K9] is 65%.
Regarding `Cc1ccccc1S(=O)(=O)N1C/C=C\CN2C(C1)[C@H](c1ccc(-c3cccc(Cl)c3C)cc1)[C@H]2CO` (stereo partly shown) [JP-28], the IC50 was 0.003 µM.
On to `Cc1cccc(-c2ccc([C@@H]3[C@@H](CO)N4CCCCN(S(=O)(=O)c5ccccc5C)C[C@@H]34)cc2)c1` [B2], for which the 50% inhibitory concentration (IC50) was determined as 0.4 µM. Besides, under setting [1], the “Imax (%) Proteolysis (inhibition maximum)” value was found to be 65%.
